# Measurements taken from patent publication US9784747B2, “Method and kit for analyzing protein-protein interaction using nanocluster formation” (KOREA ADVANCED INSTITUTE OF SCIENCE AND TECHNOLOGY, priority 2011, dated 2017).
# Test system: interaction between CaMKIIα and calmodulin
# Test: Real-time observation of calcium-dependent nanocluster formation (CaMKIIα-CaM interaction) in cotransfected HeLa cells
# Type: cell-based
# Conditions: ionomycin 1 mM; 80 seconds after treatment; HeLa cells cotransfected with mCherry-CaMKII[296-315]-AD and CaM-ECFP-FT; fluorescence distributed again as time passes
# Experimental: To investigate whether the system of the present disclosure can be used for real-time observation of an intermolecular interaction regulated by calcium through a calcium dependent nanocluster formation, the present inventors cotransfected HeLa cells with the mCherry-CaMKII[296-315]-AD construct constructed in example 1-18 and the CaM-ECFP-FT construct constructed in example 1-19 through the method described above. Thereafter, the cells were treated with 1 mM of ionomycin as ionophore which facilitates calcium ion penetration.
# Then, fluorescence was distributed again as time passes.
smiles,measurement,value
C[C@H](CCC(=O)O)C[C@H](C)C[C@H](C)C(=O)/C=C(\O)[C@H](C)C[C@H](C)C/C=C/[C@@H](C)[C@@H](O)[C@@H](C)[C@@H](O)C[C@@H]1CC[C@@](C)([C@H]2CC[C@@](C)([C@@H](C)O)O2)O1 [ionomycin],distribution and intensity of fluorescence (nanocluster formation),a strong fluorescence dot appeared in cytoplasm due to a nanocluster formation
